Data published in US10792289B2 (Horizon Orphan LLC, priority 2009, dated 2020).

Legend:
S. aureus = assay: Phase 2 study: presumptive S. aureus density in sputum; type: in vivo, human
Description: (§1) The following dosage regimens (as nebulizer loaded doses) were evaluated: 120 mg QD (daily); 240 mg QD (daily); and 240 mg BID (twice daily).
Patients were assessed on Day 1, 7, 14, and 28, and then up to 28 days after completion of study drug, namely, Days 42 and 56. The end of the study was defined as the last visit of the last patient.

stable CF patients = assay: Phase 2 study: time to need for anti-pseudomonal antimicrobials; type: in vivo, human; conditions: for Patients Requiring Anti-Pseudomonal Antimicrobials: EE population; for Number (%) of Patients Requiring Anti-Pseudomonal Antimicrobials: MITT population
Description: as §1
Efficacy endpoints including clinical endpoints, pulmonary function tests, and additional microbiological parameters were assessed as change from Day 1 to subsequent visits where the endpoint data was collected. Time to need for intravenous/oral/inhaled anti-pseudomonal antimicrobials were assessed from Day 1 until final visit using survival analysis. The primary population for efficacy analysis was the EE population, but efficacy endpoints were also analyzed using the MITT population.
Time to administration of intravenous/oral/inhaled anti-pseudomonal antimicrobials from Day 1 until Final visit was measured for patients with at least one of the following: decreased exercise tolerance, increased cough, increased sputum/chest congestion, and decreased appetite. The proportion of patients requiring anti-pseudomonal antimicrobials (inhaled or systemic) over time was analyzed using a Cox proportional hazards model.

[1] = EE population, Combined 240 mg QD and BID
[2] = EE population, Combined Levofloxacin
[3] = Table 21 (EE population), 120 mg QD
[4] = Table 21 (EE population), 240 mg BID
[5] = Table 21 (EE population), 240 mg QD
[6] = Table 21 (EE population), Combined 240 mg QD and BID
[7] = Table 21 (EE population), Combined Levofloxacin

C[C@H]1COc2c(N3CCN(C)CC3)c(F)cc3c(=O)c(C(=O)O)cn1c23 [Levofloxacin, levofloxacin]
presumptive S. aureus density, Change from Baseline to Day 7, Mean (S. aureus; EE population, 120 mg QD): −1.19 log10 CFU/g sputum | presumptive S. aureus density, Day 1, Mean (S. aureus; EE population, 120 mg QD): 5.72 log10 CFU/g sputum | presumptive S. aureus density, Day 7, Mean (S. aureus; EE population, 120 mg QD): 4.53 log10 CFU/g sputum | presumptive S. aureus density, Day 14, Mean (S. aureus; EE population, 120 mg QD): 5.30 log10 CFU/g sputum | presumptive S. aureus density, Day 28, Mean (S. aureus; EE population, 120 mg QD): 5.31 log10 CFU/g sputum | presumptive S. aureus density, Change from Baseline to Day 28, Mean (S. aureus; EE population, 120 mg QD, Day 14): −0.42 log10 CFU/g sputum | presumptive S. aureus density, Change from Baseline to Day 28, Mean (S. aureus; EE population, 120 mg QD, Day 28): −0.41 log10 CFU/g sputum | presumptive S. aureus density, Change from Baseline to Day 7, Mean (S. aureus; EE population, 240 mg BID): −0.72 log10 CFU/g sputum | presumptive S. aureus density, Day 1, Mean (S. aureus; EE population, 240 mg BID): 5.68 log10 CFU/g sputum | presumptive S. aureus density, Day 7, Mean (S. aureus; EE population, 240 mg BID): 4.96 log10 CFU/g sputum | presumptive S. aureus density, Day 14, Mean (S. aureus; EE population, 240 mg BID): 4.70 log10 CFU/g sputum | presumptive S. aureus density, Day 28, Mean (S. aureus; EE population, 240 mg BID): 5.42 log10 CFU/g sputum | presumptive S. aureus density, Change from Baseline to Day 28, Mean (S. aureus; EE population, 240 mg BID, Day 14): −0.98 log10 CFU/g sputum | presumptive S. aureus density, Change from Baseline to Day 28, Mean (S. aureus; EE population, 240 mg BID, Day 28): −0.38 log10 CFU/g sputum | presumptive S. aureus density, Change from Baseline to Day 7, Mean (S. aureus; EE population, 240 mg QD): −0.30 log10 CFU/g sputum | presumptive S. aureus density, Day 1, Mean (S. aureus; EE population, 240 mg QD): 5.64 log10 CFU/g sputum | presumptive S. aureus density, Day 7, Mean (S. aureus; EE population, 240 mg QD): 5.34 log10 CFU/g sputum | presumptive S. aureus density, Day 14, Mean (S. aureus; EE population, 240 mg QD): 5.14 log10 CFU/g sputum | presumptive S. aureus density, Day 28, Mean (S. aureus; EE population, 240 mg QD): 4.56 log10 CFU/g sputum | presumptive S. aureus density, Change from Baseline to Day 28, Mean (S. aureus; EE population, 240 mg QD, Day 14): −0.50 log10 CFU/g sputum | presumptive S. aureus density, Change from Baseline to Day 28, Mean (S. aureus; EE population, 240 mg QD, Day 28): −1.08 log10 CFU/g sputum | presumptive S. aureus density, Change from Baseline to Day 7, Mean (S. aureus; [1]): −0.47 log10 CFU/g sputum | presumptive S. aureus density, Day 1, Mean (S. aureus; [1]): 5.65 log10 CFU/g sputum | presumptive S. aureus density, Day 7, Mean (S. aureus; [1]): 5.18 log10 CFU/g sputum | presumptive S. aureus density, Day 14, Mean (S. aureus; [1]): 4.96 log10 CFU/g sputum | presumptive S. aureus density, Day 28, Mean (S. aureus; [1]): 4.89 log10 CFU/g sputum | presumptive S. aureus density, Change from Baseline to Day 28, Mean (S. aureus; EE population, Combined 240 mg QD and BID, Day 14): −0.69 log10 CFU/g sputum | presumptive S. aureus density, Change from Baseline to Day 28, Mean (S. aureus; EE population, Combined 240 mg QD and BID, Day 28): −0.81 log10 CFU/g sputum | presumptive S. aureus density, Change from Baseline to Day 7, Mean (S. aureus; [2]): −0.71 log10 CFU/g sputum | presumptive S. aureus density, Day 1, Mean (S. aureus; [2]): 5.68 log10 CFU/g sputum | presumptive S. aureus density, Day 7, Mean (S. aureus; [2]): 4.97 log10 CFU/g sputum | presumptive S. aureus density, Day 14, Mean (S. aureus; [2]): 5.08 log10 CFU/g sputum | presumptive S. aureus density, Day 28, Mean (S. aureus; [2]): 5.04 log10 CFU/g sputum | presumptive S. aureus density, Change from Baseline to Day 28, Mean (S. aureus; EE population, Combined Levofloxacin, Day 14): −0.60 log10 CFU/g sputum | presumptive S. aureus density, Change from Baseline to Day 28, Mean (S. aureus; EE population, Combined Levofloxacin, Day 28): −0.67 log10 CFU/g sputum | presumptive S. aureus density, Change from Baseline to Day 7, Mean (S. aureus; [3]): −1.14 log10 CFU/g sputum | presumptive S. aureus density, Day 1, Mean (S. aureus; [3]): 5.89 log10 CFU/g sputum | presumptive S. aureus density, Day 7, Mean (S. aureus; [3]): 4.75 log10 CFU/g sputum | presumptive S. aureus density, Day 14, Mean (S. aureus; [3]): 5.48 log10 CFU/g sputum | presumptive S. aureus density, Day 28, Mean (S. aureus; [3]): 5.49 log10 CFU/g sputum | presumptive S. aureus density, Change from Baseline to Day 28, Mean (S. aureus; Table 21 (EE population), 120 mg QD, Day 14): −0.41 log10 CFU/g sputum | presumptive S. aureus density, Change from Baseline to Day 28, Mean (S. aureus; Table 21 (EE population), 120 mg QD, Day 28): −0.41 log10 CFU/g sputum | presumptive S. aureus density, Change from Baseline to Day 7, Mean (S. aureus; [4]): −0.66 log10 CFU/g sputum | presumptive S. aureus density, Day 1, Mean (S. aureus; [4]): 5.51 log10 CFU/g sputum | presumptive S. aureus density, Day 7, Mean (S. aureus; [4]): 4.65 log10 CFU/g sputum | presumptive S. aureus density, Day 14, Mean (S. aureus; [4]): 4.32 log10 CFU/g sputum | presumptive S. aureus density, Day 28, Mean (S. aureus; [4]): 4.95 log10 CFU/g sputum | presumptive S. aureus density, Change from Baseline to Day 28, Mean (S. aureus; Table 21 (EE population), 240 mg BID, Day 14): −0.99 log10 CFU/g sputum | presumptive S. aureus density, Change from Baseline to Day 28, Mean (S. aureus; Table 21 (EE population), 240 mg BID, Day 28): −0.44 log10 CFU/g sputum | presumptive S. aureus density, Change from Baseline to Day 7, Mean (S. aureus; [5]): −0.40 log10 CFU/g sputum | presumptive S. aureus density, Day 1, Mean (S. aureus; [5]): 5.63 log10 CFU/g sputum | presumptive S. aureus density, Day 7, Mean (S. aureus; [5]): 5.23 log10 CFU/g sputum | presumptive S. aureus density, Day 14, Mean (S. aureus; [5]): 4.97 log10 CFU/g sputum | presumptive S. aureus density, Day 28, Mean (S. aureus; [5]): 4.48 log10 CFU/g sputum | presumptive S. aureus density, Change from Baseline to Day 28, Mean (S. aureus; Table 21 (EE population), 240 mg QD, Day 14): −0.66 log10 CFU/g sputum | presumptive S. aureus density, Change from Baseline to Day 28, Mean (S. aureus; Table 21 (EE population), 240 mg QD, Day 28): −1.15 log10 CFU/g sputum | presumptive S. aureus density, Change from Baseline to Day 7, Mean (S. aureus; [6]): −0.51 log10 CFU/g sputum | presumptive S. aureus density, Day 1, Mean (S. aureus; [6]): 5.58 log10 CFU/g sputum | presumptive S. aureus density, Day 7, Mean (S. aureus; [6]): 4.99 log10 CFU/g sputum | presumptive S. aureus density, Day 14, Mean (S. aureus; [6]): 4.70 log10 CFU/g sputum | presumptive S. aureus density, Day 28, Mean (S. aureus; [6]): 4.66 log10 CFU/g sputum | presumptive S. aureus density, Change from Baseline to Day 28, Mean (S. aureus; Table 21 (EE population), Combined 240 mg QD and BID, Day 14): −0.80 log10 CFU/g sputum | presumptive S. aureus density, Change from Baseline to Day 28, Mean (S. aureus; Table 21 (EE population), Combined 240 mg QD and BID, Day 28): −0.87 log10 CFU/g sputum | presumptive S. aureus density, Change from Baseline to Day 7, Mean (S. aureus; [7]): −0.71 log10 CFU/g sputum | presumptive S. aureus density, Day 1, Mean (S. aureus; [7]): 5.68 log10 CFU/g sputum | presumptive S. aureus density, Day 7, Mean (S. aureus; [7]): 4.91 log10 CFU/g sputum | presumptive S. aureus density, Day 14, Mean (S. aureus; [7]): 4.95 log10 CFU/g sputum | presumptive S. aureus density, Day 28, Mean (S. aureus; [7]): 4.93 log10 CFU/g sputum | presumptive S. aureus density, Change from Baseline to Day 28, Mean (S. aureus; Table 21 (EE population), Combined Levofloxacin, Day 14): −0.68 log10 CFU/g sputum | presumptive S. aureus density, Change from Baseline to Day 28, Mean (S. aureus; Table 21 (EE population), Combined Levofloxacin, Day 28): −0.72 log10 CFU/g sputum | Patients Requiring Anti-Pseudomonal Antimicrobials (stable CF patients; 120 mg QD): 20.0% | Patients Requiring Anti-Pseudomonal Antimicrobials (stable CF patients; 240 mg BID): 20.6% | Patients Requiring Anti-Pseudomonal Antimicrobials (stable CF patients; 240 mg QD): 25.7% | Patients Requiring Anti-Pseudomonal Antimicrobials (stable CF patients; Combined 240 mg QD and BID): 23.2% | Number (%) of Patients Requiring Anti-Pseudomonal Antimicrobials (stable CF patients; 120 mg QD): 18.4% | Number (%) of Patients Requiring Anti-Pseudomonal Antimicrobials (stable CF patients; 240 mg BID): 20.5% | Number (%) of Patients Requiring Anti-Pseudomonal Antimicrobials (stable CF patients; 240 mg QD): 27.0% | Number (%) of Patients Requiring Anti-Pseudomonal Antimicrobials (stable CF patients; Combined 240 mg QD and BID): 23.7%
